In publication PMC11571215, “Optimization of Antiproliferative Properties of Triimine Copper(II) Complexes” (Journal of Medicinal Chemistry, 2024):

Columns and labels:
Type in all cases: cell-based, human
[1] = tested on: HCT116-DoxR cells; assay: Apoptosis by Annexin V-FITC/PI flow cytometry; details: 48 h, complexes at IC50, Dox 6 μM, Cis 5 μM
Protocol: Initially, a quantitative assay with double staining using annexin V-FITC (FITC, fluorescein isothiocyanate) and propidium iodide (PI) through flow cytometry was performed.[24] Annexin V-FITC, a probe with an affinity for the ionic phospholipid phosphatidylserine (PS), predominantly located on the inner side of the plasma membrane in healthy cells, undergoes translocation to the outer plasma membrane during the early stages of apoptosis.[61],[67] In contrast, PI is a DNA intercalating agent that marks cells with compromised plasma membrane (usually in the late stages of apoptosis or in necrosis), emitting red fluorescence upon interaction with nucleic acids.[54],[68] This assay allows for distinguishing cells in four different conditions: viable cells (FITC–, PI−), early apoptosis (FITC+, PI−), late apoptosis (FITC+, PI+), and necrosis (FITC–, PI+).
The Annexin V-FITC Apoptosis Detection Kit (catalog no. V13245, Invitrogen, USA) was used in this study for the induction of apoptosis analysis. HCT116-DoxR cells were seeded in 6-well plates at a cell density of 1 × 10^5 cells/mL and incubated for 24 h, under the same conditions mentioned before. […] After this incubation period, the cells were washed with PBS 1× and trypsinized with TrypLE Express (Invitrogen). The supernatant was discarded, and the pellet was washed with PBS 1×. The cells were resuspended in 1× Annexin V-FITC binding buffer. Subsequently, the samples were incubated at room temperature (RT) with Alexa Fluor 488 annexin V and 100 μg/mL of propidium iodide (PI) in the dark for 15 min. After incubation, 1× Annexin V-FITC binding buffer was added and the samples were analyzed using an Attune Acoustic Focusing Flow Cytometer (Life Technologies, Carlsbad, USA). Results were processed with Attune Cytometric software.

[2] = tested on: HCT116-DoxR cells; assay: Autophagy induction (CYTO-ID green, flow cytometry); details: 48 h; complexes at IC50, Dox 6 μM, Cis 5 μM, rapamycin 1500 nM
Text: Furthermore, previous studies have shown that complexes containing terpyridine derivatives have the ability to trigger both apoptosis and autophagy cell death mechanisms in cancer cells simultaneously.[38] This convergence of death pathways may arise from an adaptive response of the heterogeneous tumor cell population.[38] In this context, understanding the mechanism by which cells lose viability in the presence of the two Cu(II) complexes with the simultaneous induction of apoptosis and autophagy becomes crucial. Autophagy is a highly conserved catabolic process crucial for maintaining cellular homeostasis but is also associated with type II programmed cell death.[75] It involves intracellular degradation through autophagolysosomes responsible for breaking down luminal content and enabling recycling of cellular components.[76],[77] The assessment of the complexes’ ability to induce autophagy was conducted using flow cytometry, employing the CYTO-ID green detection reagent. This probe emits green fluorescence, marking the autophagic vacuoles within the cell. Higher fluorescence indicates a greater proportion of autophagolysosomes.[78] Three positive controls were used: Dox, Cis, and rapamycin (1500 nM), whose concentration was previously optimized for the HCT116-DoxR cell line in the laboratory.[64] Rapamycin is known to induce autophagy through its mechanistic target, mTOR.
Cell death via autophagy was evaluated using the Autophagy Assay Kit (ab139484; Abcam, Cambridge, United Kingdom), according to the manufacturers’ instructions. HCT116-DoxR cells were seeded at a density of 1 × 10^5 cells/mL in 6-well plates for 24 h, under the same conditions described before. After this incubation period, the culture medium was replaced with a fresh medium containing the copper complexes under evaluation at their IC50 concentration. A 0.1% (v/v) DMSO solution was used as the negative (vehicle) control, and 6 μM Dox and 5 μM Cis were used as positive controls. The cells were incubated again for 48 h. Rapamycin (1500 nM) was also added as a positive control, and it was added 18 h before the end of the 48 h incubation. After this period, the supernatant was discarded, and each well was washed with PBS 1×. Subsequently, cells were detached using TrypLE Express and washed with phenol red-free DMEM medium containing 5% (v/v) FBS. Cells were incubated with Green Stain Solution in phenol red-free DMEM medium containing 5% (v/v) FBS for 30 min at RT. After this period, the samples were washed and then resuspended in Assay Buffer 1×. The samples were analyzed using an Attune Acoustic Focusing Flow Cytometer (Life Technologies, Carlsbad, USA), and the results were analyzed via the Attune Cytometric software.

[3] = tested on: primary dermal fibroblasts; assay: Cell migration (wound healing) assay; details: 24 h; complexes at IC50, Dox 6 μM; DMSO control 100%
Protocol: Cellular migration is the individual movement of cells from one location to another.[96] This migratory process is an integral part of both the metastatic process and wound healing.[54] […] The in vitro wound healing assay is highly used to understand how the complexes affect cellular migration by measuring the closure of a gap previously created in the cell culture plate. […] Additionally, cells were subjected to the vehicle control of 0.1% DMSO and the positive control of Dox (6 μM), and the percentage of remission/regeneration was calculated (Figure 18).
Fibroblasts were seeded in 24-well plates at a cell density of 4 × 10^5 cells/mL. The plates were incubated for 24 h under the same conditions described before until a confluent cell monolayer was obtained. […] The cells were incubated at 37 °C for 48 h. The plates were photographed under an inverted microscope (Nikon TMS, Nikon Instruments, Tokyo, Japan) at 4× magnification (immediately after exposure to the complexes (0 h), 24, and 48 h following exposure).

SMILES | early apoptosis [1] | late apoptosis [1] | necrosis [1] | early apoptosis ([1]; listed as cisplatin) | late apoptosis ([1]; listed as cisplatin) | increase in autophagic vesicles compared to 0.1% DMSO control [2] | viable cells [1] | percentage of remission/regeneration of the wound [3] | late apoptosis ([1]; listed as Dox) | necrosis ([1]; listed as Dox) | viable cells ([1]; listed as Dox)
N.N.[Cl][Pt][Cl] [Cisplatin] | 40.1% | 25.8% | 0.9% ± 1.1 | 40.1% ± 11.8 | 25.8% ± 7.7 | increase in green fluorescence intensity |  |  |  |  | 
[Cl][Cu-3]12([Cl])[n+]3ccccc3-c3cc(-c4cccc5ccccc45)cc([n+]31)-c1cccc[n+]12 [Cu1a] |  |  |  |  |  | approximately 2 fold | 23.1% ± 4.5 | approximately 66% |  |  | 
[Cl][Cu-3]12([Cl])[n+]3ccccc3-c3cc(-c4ccc5ccccc5c4)cc([n+]31)-c1cccc[n+]12 [Cu1b] |  |  | 0.7% ± 0.6 |  |  | approximately 2 fold | 59.3% ± 7.8 | 69% |  |  | 
COc1cccc2c1C(=O)c1c(O)c3c(c(O)c1C2=O)C[C@@](O)(C(=O)CO)C[C@@H]3O[C@H]1C[C@H](N)[C@H](O)[C@H](C)O1 [Doxorubicin] | 16.6% ± 5.5 | 13.9% ± 1.9 | 9.8% ± 4.0 |  |  | 2.2 fold | 59.8% ± 3.8 | 68% | 13.9% | 9.8% | about 59.8%
